Consider 6 compounds from US20030220521A1, “Renal-selective prodrugs for control of renal sympathetic nerve activity in the treatment of hypertension” (G.D. Searle & Co., priority 1989, published 2003).

One assay concerns conscious SHR. Put plainly: Assay XIII: antihypertensive experiments in conscious SHR (renal denervation, bulbocapnine). It counts as in vivo, rat. Particulars: bulbocapnine alone. As to the method:
For antihypertensive experiments, male SHR (11-13 weeks of age; Harlan Sprague-Dawley, Inc.; Indianapolis, Ind.) were habituated for 3-4 days in individual experimental cages, which became their home cages for the duration of the study. Five to seven days before experimentation, SHR were anesthetized with chloral hydrate (400 mg/kg; Sigma Chemical Co., St. Louis, Mo.) and catheters were implanted into a femoral artery and vein. The catheters were led to the back of the neck, exteriorized, and channeled through a tether and swivel system (Alice King Chatham, Los Angeles, Calif.). Surgical renal denervation was performed as above. […] In separate groups of conscious SHR, Ex. #859 (5 mg/kg/hr, n=6) was infused alone, Ex. #859 (5 mg/kg/hr, n=6) was coinfused with bulbocapnine (100 μg/kg/min), or Ex. #859 (10 mg/kg/hr, n=6) was infused 5-7 days after surgical renal denervation. Surgical renal denervation was performed as described above. After a one hour control measure of mean arterial pressure, compounds were infused for four hours and mean arterial pressure was measured continuously.

The test system of assay [1] is spontaneously hypertensive rats. Put plainly: Assay III: chronic i.v. infusion, mean arterial pressure in spontaneously hypertensive rats (Ex. #464). It counts as in vivo, rat. Particulars: SHR; for MAP: continuous infusion 10 mg/hr. As to the method: The Ex. #464 conjugate and saline vehicle were infused continuously for four days in spontaneously hypertensive rats. Mean arterial pressure was measured (Gould Chart Recorder, model 3800; Statham P23Db pressure transducer) via an indwelling femoral artery catheter between 10:00 a.m. and 2:00 p.m. each day. The Ex. #464 conjugate was infused at 10 mg/hr and the saline vehicle was infused at 300 μL/hr.

Assay [2] addresses T1, dopamine beta-hydroxylase (DBH; EC 1.14.17.1) (Bos taurus, UniProt P15101).
T1 construct: DBH, purified from bovine adrenals (Sigma); purchased Sigma; host or cells: bovine adrenals (tissue-purified)
T1 sequence (P15101 1-610): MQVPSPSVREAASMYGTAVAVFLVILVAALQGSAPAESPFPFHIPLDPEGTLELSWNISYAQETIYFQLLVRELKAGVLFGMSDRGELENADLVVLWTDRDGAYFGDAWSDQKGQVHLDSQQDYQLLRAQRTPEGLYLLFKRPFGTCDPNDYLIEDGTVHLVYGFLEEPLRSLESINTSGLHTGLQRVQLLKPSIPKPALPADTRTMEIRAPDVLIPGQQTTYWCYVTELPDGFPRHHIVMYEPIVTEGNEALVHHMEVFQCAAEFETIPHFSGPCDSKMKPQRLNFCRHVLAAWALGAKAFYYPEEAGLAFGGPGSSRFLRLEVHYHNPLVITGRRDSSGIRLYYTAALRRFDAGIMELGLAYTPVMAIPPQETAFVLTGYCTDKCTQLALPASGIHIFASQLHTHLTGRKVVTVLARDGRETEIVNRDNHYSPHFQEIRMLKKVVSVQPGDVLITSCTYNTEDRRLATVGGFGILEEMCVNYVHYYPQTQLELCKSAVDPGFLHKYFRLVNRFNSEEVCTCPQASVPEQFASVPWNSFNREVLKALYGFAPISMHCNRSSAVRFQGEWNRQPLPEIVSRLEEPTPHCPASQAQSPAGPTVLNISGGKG
As to the kind of experiment: Assay V: in vitro DBH inhibition (norepinephrine production, HPLC). It counts as biochemical, bovine. The conditions noted are these: for inhibition at 20 µM: test compound 20 μM, read-out: % Inhibition of DBH. As to the method:
In order to characterize the relative potency of the Ex. #859 conjugate and its various potential metabolites as inhibitors of dopamine beta-hydroxylase (DBH; EC 1.14.17.1), the enzyme activity was determined in vitro in the presence of these compounds. DBH, purified from bovine adrenals (Sigma) was incubated at 37° C. in buffer containing 20 mM dopamine as substrate. The reaction was stopped by addition of 0.5 M perchloric acid. The precipitate was removed and the product of the enzyme activity (norepinephrine), contained in the clear supernatant, was analyzed by HPLC. The chromatographic separation used a reversed phase C-18 column run isocratically with 0.2 M ammonium acetate (pH 5.2) as the mobile phase. The amount of norepinephrine produced by the enzyme-substrate mixture was analyzed by measuring the peak intensity (absorbance) at 280 nm for norepinephrine as it was eluted at 4.5 minutes, using a photo-diode array detector. The result of adding either fusaric acid or the Ex. #859 conjugate to the incubate at various concentrations is shown in Table XXIII and FIG. 6. […] Fusaric acid and Ex. #859 and two more possible metabolites (Ex #858 and fusaric acid hydrazide) were tested at 20 uM.

Assay [3] concerns spontaneously hypertensive rats. Put plainly: Assay IX: chronic 4 day i.v. infusion of Ex. #861 and #863, mean arterial pressure in SHR. It counts as in vivo, rat. Particulars: for Blood Pressure (mean arterial pressure): 5 mg/hr i.v. infusion; for chronic effect on mean arterial pressure: SHR, 4 day infusion at 5 mg/hr. As to the method: The conjugates of Ex. #861 and #863 and saline vehicle were infused continuously for 4 days in spontaneously hypertensive rats. Mean arterial pressure was measured (Gould Chart Recorder, model 3800; Statham P23Db pressure transducer) via an indwelling femoral artery catheter between 10:00 a.m. and 2:00 p.m. each day. The Ex. #861 and Ex. #863 conjugates were infused at 5 mg/hr and the saline vehicle was infused at 100 μl/hr via a jugular vein catheter with a Harvard infusion pump. […] It is believed that at a higher dose of the Ex. #861 conjugate, blood pressure lowering effects would be observed.

For assay [4] the test system is unchanged. Put plainly: Assay VI: acute in vivo effects on mean arterial pressure and renal blood flow in anesthetized SHR (i.v. or i.d.). Particulars: for MAP / RBF: 100 mg/kg i.v. Also on record: species or system rat. As for the experimental part: Spontaneously hypertensive rats were anesthetized with inactin (100 mg/kg, i.p.) and catheters were implanted into a carotid artery for measurement of mean arterial pressure (Gould model 3800 chart recorder; Statham pressure transducer model no. P23DB) and into a jugular vein for compound administrations (i.v. or i.d.). In addition, a flow probe was implanted around the left renal artery for measurement of renal blood flow using pulsed Doppler flowmetry. Rats were allowed 60 min to stabilize before 10 minutes of control recordings of mean arterial pressure and renal blood flow were obtained. Control measurements were followed by intravenous injection of 50 mg/kg of fusaric acid or the Ex. #859 conjugate. […] The Ex. #859 conjugate had no effect on mean arterial pressure at a dose of 100 mg/kg (n=4) during a 60 minute observation period. Renal blood flow (n=4) was unchanged 15 minutes after injection of the Ex. #859 conjugate but increased from 1.1 KHz (control period) to 3.5 KHz at 30 minutes postinjection.

In assay [5] the test system is Spontaneously Hypertensive Rats (SHR). Put plainly: Assay VII: acute effects on arterial pressure in anesthetized SHR. It counts as in vivo, rat. The conditions noted are these: i.v.: fusaric acid and fusaric acid hydrazide 100 mg/kg, Ex. #859 250 mg/kg. As to the method:
Mean arterial pressure effects of fusaric acid hydrazide (100 mg/kg, i.v.), fusaric acid (100 mg/kg, i.v.) and Ex. #859 conjugate (250 mg/kg, i.v.) are shown in Table XXVII during a vehicle control period and 60 min post-injection of compound in anesthetized SHR. Rats were prepared as described above, minus the renal artery flow probe.

Setting [6] is: anesthetized SHR, Ex. #863 (Table XXVI).

By inhibition is commonly meant the drop in the measured response relative to a control, in per cent.

Regarding `COc1ccc2c(c1O)-c1c3c(cc4c1[C@H](C2)N(C)CC4)OCO3` [Bulbocapnine, bulbocapnine, reference compound], the Mean arterial pressure was 160 ± 6 in the assay on conscious SHR (0 hours); 156 ± 7 with conscious SHR (1 hour); 161 ± 11 with conscious SHR (2 hours); 159 ± 6 in the assay with conscious SHR (3 hours); 157 ± 7 in the assay with conscious SHR (4 hours). Moreover, the “effect on mean arterial pressure over the four hour period” value in the assay on conscious SHR (conscious SHR) is “no effect”.
In the case of `CC(=O)NC(CCC(=O)N[C@@](C)(Cc1ccc(O)c(O)c1)C(=O)O)C(=O)O` (stereo partly drawn) [Ex. #464, N-[4-(acetylamino)-4-carboxy-1-oxobutyl]-3-hydroxy-α-methyl-L-tyrosine], the MAP amounted to 169 ± 5 mm Hg in assay [1] (day 1); 161 ± 4 mm Hg in assay [1] (day 2); 163 ± 5 mm Hg in assay [1] (day 3); 159 ± 8 mm Hg in assay [1] (day 4); 179 ± 6 mm Hg in assay [1] (day Zero). In addition, the “effect on mean arterial pressure over the four-day period” value in assay [1] (infusion 10 mg/hr) is reported as “lowered significantly”.
Consider `CCCCc1ccc(C(=O)NNC(=O)CCC(N)C(=O)O)nc1` [Ex. #858, L-glutamic acid, 5-{[(5-butyl-2-pyridinyl)carbonyl]hydrazide}], for which the inhibition at 20 µM in assay [2] was determined as 0%.
`CCCCc1ccc(C(=O)NCCNC(=O)CCC(NC(C)=O)C(=O)O)nc1` [Ex. #861, N^2-acetyl-N-[2-[[(5-butyl-2-pyridinyl)carbonyl]amino]ethyl]-L-glutamine]: the “Blood Pressure (mean arterial pressure)” value is 173 ± 3 in assay [3] (day 1); 172 ± 4 in assay [3] (day 2); 172 ± 3 in assay [3] (day 3); 163 ± 9 in assay [3] (day 4); 177 ± 3 in assay [3] (day zero). Also, the “chronic effect on mean arterial pressure” value in assay [3] is recorded as “did not change”.
Regarding `CCCCc1ccc(C(=O)N2CCN(C(=O)CCC(NC(C)=O)C(=O)O)CC2)nc1` (centres unmarked) [Ex. #863, 2-(acetylamino)-5-(4-[(5-butyl-2-pyridinyl)carbonyl]-1-piperazinyl]-5-oxopentanoic acid], the MAP in assay [4] (60 min) worked out at 147 ± 14 mm Hg; in assay [4] (time zero), 149 ± 14 mm Hg. Also, the RBF in assay [4] (60 min) was 4.3 ± 0.3 KHz; in assay [4] (time zero), 1.6 ± 0.2 KHz. The “effect on mean arterial pressure” value in assay [4] (setting [6]) was “no effect”. Besides, the “effect on renal blood flow” value in assay [4] (setting [6]) is reported as “increased renal blood flow”. In addition, the “Blood Pressure (mean arterial pressure)” value was found to be 152 ± 6 in assay [3] (day 1); 146 ± 7 in assay [3] (day 2); 142 ± 7 in assay [3] (day 3); 154 ± 7 in assay [3] (day 4); 177 ± 5 in assay [3] (day zero). In assay [3], the “chronic effect on mean arterial pressure” value is “lowered mean arterial pressure”.
Regarding `CCCCc1ccc(C(=O)NN)nc1` [Fusaric Acid Hydrazide, 5-n-butylpicolinic acid hydrazide], in assay [2], the inhibition at 20 µM amounted to 13.8%. For the same compound, the “inhibitory effect on dopamine-β-hydroxylase activity” value in assay [2] (tested at 20 uM) is recorded as “Only fusaric acid had significant inhibitory effects”. Also, the Mean arterial pressure is listed as 104 ± 13 mmHg in assay [5] (60 MIN post-injection) and 159 ± 8 mmHg in assay [5] (ZERO (vehicle control period)).
